Results published in patent US20040152746A1, “Treatment of scarring and related conditions using ppar-gamma activators” (priority 2001, published 2004).
Marks after values point to notes of the source that are not given here.

Tested on: Human dermal fibroblasts differentiated to myofibroblasts with TGF-beta1
Assay: Myofibroblast number after treatment with pioglitazone (alpha-smooth muscle actin immunohistochemistry)
Assay type: cell-based
Conditions: 3 days differentiation medium with 1 ng/ml TGF-beta1, % positive cells/total cells, control 3.47
Description: Human dermal fibroblasts were cultured on sterile cover-slips and allowed to adhere for 24 hours in fibroblast medium, i.e. (1.0 ml L-Glutamine (200 mM; Gibco), 1.0 ml non-essential amino acids, NEAA(100×; Gibco), 1.0 ml penicillin/streptomycin (100×Gibco), 10 ml new-born calf serum, NBCS (Gibco), 87 ml Dulbecco's modified Eagle's Medium, DMEM (Gibco)). At confluence, the medium was changed to myofibroblast differentiation medium, i.e. 1.0 ml L-Glutamine (200 mM; Gibco), 1.0 ml non-essential amino acids, NEAA(100×; Gibco), 10 ml penicillin/streptomycin (100×Gibco), 1 ml ITS (Insulin, Transferrin, Selenium)(100×Gibco)) supplemented with 1 ng/ml TGF-beta1 (Sigma). Myofibroblast differentiation was allowed to proceed for 3 days either in the presence of variable concentrations of pioglitazone or without. Myofibroblast number was determined by immunohistochemistry according to the following protocol. Cells were washed in phosphate buffered saline (PBS), then fixed in 3% paraformaldehyde for 5 mins followed by quenching in 50 mM ammonium chloride. The cells were then washed and permeabilised with 0.2% Triton X-100 in PBS. All antibodies were diluted into 0.2% fish skin gelatin (FSG) (Sigma). Prior to antibody detection non-specific binding was blocked using 0.2% FSG in PBS. Mouse anti-human alpha-smooth muscle actin (Sigma) was diluted 1:100 and incubated with the cells for 45 mins followed by washing. Rabbit anti-mouse immunoglobulin horseradish-peroxidase secondary antibody was incubated for 30 mins. Visualisation used Fast-DAB (Sigma) according to manufacturer's instructions. Cells were counterstained with haemotoxylin. […] Haemotoxylin stained nuclei were counted by the software using size-exclusion parameters which excluded small and large debris. Accuracy was determined within the software using binary overlays of the counted objects to examine if any non-nuclei counts occurred or if any nuclei were missed. […] DAB positive cells were counted by hand on the captured images. Counts are expressed as % positive cells/total cells.

CCc1ccc(CCOc2ccc(CC3SC(=O)NC3=O)cc2)nc1 (stereo not drawn) [pioglitazone]
% Myofibroblasts (0.1 μM pioglitazone, p < 0.05): 1.81* % | % Myofibroblasts (1 μM pioglitazone, p < 0.005): 0.71** % | % Myofibroblasts (10 μM pioglitazone, p < 0.005): 0.10** %
